The values that follow are results of earlier work, collected in patent publication US20250319024A1, “TARGETED NANOPARTICLES AND THEIR USES RELATED TO INFECTIOUS DISEASE” (priority 2021, published 2025).

Read-outs that look alike come from different tables or passages of the source.

This data set deals with RIF sensitive strains / resistant strains. To be noted: cited from earlier work.

On to `CO[C@H]1/C=C/O[C@@]2(C)Oc3c(C)c(O)c4c(O)c(c(/C=N/N5CCN(C)CC5)c(O)c4c3C2=O)NC(=O)/C(C)=C\C=C\[C@H](C)[C@H](O)[C@@H](C)[C@@H](O)[C@@H](C)[C@H](OC(C)=O)[C@@H]1C` [free RIF, rifampin], for which the ED95 result (RIF sensitive strains) was “below 0.5 μg/mL” and the ED95 result (resistant strains) is “above 2 μg/mL”.
